Data reported in ChEMBL document CHEMBL6127083, “A mini-review on integrase inhibitors: The cornerstone of next-generation HIV treatment” (Eur J Med Chem, 2024).
Blank lines part the entries; values can stand above or below the molecule they belong to.

Legend:
[1] = tested on: Human immunodeficiency virus 1; test: Antiviral activity against HIV-1 3B infected in human MT4 cells assessed as reduction in viral replication incubated for 5 days by MTT assay; format: functional, organism-based; conditions: Human immunodeficiency virus 1, 3B, MT4, 120 h
[2] = target: T1, Human immunodeficiency virus type 1 integrase (Human immunodeficiency virus 1, UniProt Q7ZJM1); test: Inhibition of HIV-1 integrase incubated for 30 mins by strand transfer activity
T1 sequence (Q7ZJM1 whole entry): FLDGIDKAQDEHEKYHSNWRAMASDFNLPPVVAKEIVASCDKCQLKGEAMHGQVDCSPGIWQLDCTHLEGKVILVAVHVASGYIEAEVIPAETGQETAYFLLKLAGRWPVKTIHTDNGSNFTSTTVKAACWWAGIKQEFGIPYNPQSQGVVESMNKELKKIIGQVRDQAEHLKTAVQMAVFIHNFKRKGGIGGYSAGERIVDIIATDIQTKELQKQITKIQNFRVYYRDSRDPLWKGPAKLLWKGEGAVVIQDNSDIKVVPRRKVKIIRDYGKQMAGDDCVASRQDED

[3] = Cytotoxicity against human TZM-bl cells assessed as reduction in cell viability incubated for 48 hrs by MTT assay; format: toxicity, cell-based
[4] = tested on: Human immunodeficiency virus 1; test: Antiviral activity against HIV-1 IIIB infected in human MT2 cells assessed as reduction in virus induced cytopathic effect incubated overnight by ELISA method; format: functional, organism-based; conditions: Human immunodeficiency virus 1, 3B
[5] = tested on: Human immunodeficiency virus 1; test: Antiviral activity against HIV-1 3B infected in human MT4 cells assessed as reduction in virus-induced cytopathic effect measured for 5 days by MTT assay; format: functional, organism-based; conditions: Human immunodeficiency virus 1, 3B, MT4, 120 h
[6] = target: T1, Human immunodeficiency virus type 1 integrase; test: Inhibition of HIV-1 integrase
[7] = Oral bioavailability in rat at 2 mg/kg by LC-MS/MS analysis; format: ADME, organism-based; conditions: in vivo
[8] = tested on: Human immunodeficiency virus 1; test: Antiviral activity against HIV1 harboring E138K mutant infected in MT4 cells assessed as reduction in virus induced cytopathic effect incubated for 5 days by MTT method; format: functional, organism-based; conditions: Human immunodeficiency virus 1, MT4, 120 h
[9] = target: T1, Human immunodeficiency virus type 1 integrase; test: Inhibition of HIV-1 integrase strand transfer activity
[10] = target: Human immunodeficiency virus type 1 integrase (Human immunodeficiency virus 1) (UniProt Q7ZJM1); test: Inhibition of HIV-1 integrase at 100 uM relative to control
Chain of Human immunodeficiency virus type 1 integrase (Human immunodeficiency virus 1) (Q7ZJM1 as listed by the source): as the sequence (Q7ZJM1 whole entry) above

[11] = tested on: Human immunodeficiency virus 1; test: Antiviral activity against HIV-1 IIIB infected in human MT4 cells assessed as protection against virus induced cytopathic effect; format: functional, organism-based; conditions: Human immunodeficiency virus 1, IIIB
[12] = tested on: Human immunodeficiency virus 1; test: Antiviral activity against HIV1 IIIB harboring N155H mutant infected in MT4 cells assessed as reduction in virus induced cytopathic effect incubated for 5 days by MTT assay; format: functional, organism-based; conditions: Human immunodeficiency virus 1, IIIB, MT4, 120 h
[13] = Inhibition of wild type HIV integrase strand transfer activity; parameters: species or system Human immunodeficiency virus
[14] = tested on: Human immunodeficiency virus 1; test: Antiviral activity against HIV1 IIIB harboring S230N mutant infected in MT4 cells assessed as reduction in virus induced cytopathic effect incubated for 5 days by MTT assay; format: functional, organism-based; conditions: Human immunodeficiency virus 1, IIIB, MT4, 120 h
[15] = target: Human immunodeficiency virus type 1 integrase (Human immunodeficiency virus 1) (UniProt Q7ZJM1); test: Inhibition of HIV-1 integrase at 20 uM relative to control
[16] = Half life in rat; format: ADME; conditions: in vivo
[17] = target: Human immunodeficiency virus type 1 reverse transcriptase (Human immunodeficiency virus 1, UniProt Q72547); test: Inhibition of recombinant HIV-1 reverse transcriptase associated RNase H extracted from Escherichia coli BL21 (DE3) by microplate reader analysis
[18] = tested on: Human immunodeficiency virus 1; test: Antiviral activity against HIV1 IIIB harboring E138K mutant infected in MT4 cells assessed as reduction in virus induced cytopathic effect incubated for 5 days by MTT assay; format: functional, organism-based; conditions: Human immunodeficiency virus 1, IIIB, MT4, 120 h

Compound: N#CCCc1cccc(C(=O)CC(=O)C(=O)O)c1
IC50 [1]: > 25 µM

IC50 [2]: 10.1 µM
Compound: CCOC(=O)c1[nH]c2ccccc2c1Nc1ccccc1OC

Compound: [N-]=[N+]=NCc1cccc(C(=O)CC(=O)C(=O)O)c1
IC50 [1]: 2.1 µM

Compound: COc1ccc(-c2ccc3c(-c4ccc(F)cc4F)cn(C)c3n2)cc1
CC50 at 48 h [3]: 49.3 µM

Compound: [N-]=[N+]=NCc1cc(CN=[N+]=[N-])cc(C(=O)CC(=O)C(=O)O)c1
IC50 [1]: 5 µM

EC50 [4]: 4.29 µM
Compound: O=C(O)/C(O)=C/C(=O)c1cc2ccccc2n1-c1ccccc1

IC50 [2]: 11.7 µM
Compound: CCOC(=O)c1cc2cc(NC(=O)c3cnccn3)ccc2[nH]1

Compound: O=C(O)/C(O)=C/C(=O)c1nc2ccccc2n1Cc1ccccc1F
EC50 [5]: 40 µM

EC50 [4]: 17 µM
Compound: O=C(O)/C(O)=C/C(=O)c1ccc(C(c2cccc(C(=O)/C=C(\O)C(=O)O)c2)c2ccccc2F)cc1 (centres undefined)

IC50 [6]: 0.9 µM
Compound: Cn1c(=O)c(C(=O)O)c(O)c2cc(-c3ccc(F)cc3)ccc21

IC50 [2]: 32.3 µM
Compound: O=C(O)c1cc2ccccc2[nH]1 [INDOLE-2-CARBOXYLIC ACID]

IC50 [2]: 10.5 µM
Compound: O=C(O)c1[nH]c2ccc([N+](=O)[O-])cc2c1COCc1ccc(C(F)(F)F)cc1

IC50 [6]: < 0.1 µM
Compound: CC(C)Oc1ccc(Cc2ccccc2)cc1C(=O)/C=C(\O)C(=O)O

bioavailability [7]: 52%
Compound: Cc1ccc(CCOc2ccc(-c3c(C)nc(C)c([C@H](OC(C)(C)C)C(=O)O)c3N3CCC(C)(C)CC3)cc2)cc1

IC50 [6]: 1.2 µM
Compound: O=C(O)c1ccc2ccc(/C=C/c3cc(O)c(O)c(O)c3)nc2c1O

IC50 [6]: 0.14 µM
Compound: CC1COC2(C1)[C@H](C)n1cc(C(=O)NCc3ccc(F)cc3F)c(=O)c(O)c1C(=O)C2(C)C (some centres undefined)

Compound: C[C@H]1CO[C@@H]2Cn3cc(C(=O)NCc4ccc(F)cc4F)c(=O)c(O)c3C(=O)N12 [CABOTEGRAVIR]
EC50 [8]: 4.77 µM | IC50 [9]: 1.8 µM

EC50 [4]: 4.29 µM
Compound: COC(=O)/C(O)=C/C(=O)c1cc2cc3c(cc2n1-c1ccccc1)OCO3

IC50 [6]: 1.23 µM
Compound: CC1COC2(C1)Cn1cc(C(=O)NCc3cccc(Cl)c3F)c(=O)c(O)c1C(=O)C2(C)C (centres undefined)

Compound: CCCCCn1c(=O)c(C(=O)Nc2cccc([N+](=O)[O-])c2O)c(O)c2ccccc21
IC50 [6]: 9 µM

inhibition [10]: 50%
Compound: NNC(=O)c1ncn(-c2ccc(Br)cc2)c1-c1cccc(F)c1

EC50 [11]: 0.02 µM
Compound: O=C(O)/C(O)=C/C(=O)c1cccc(Cc2ccccc2F)c1

Compound: Cn1cc(-c2ccc3c(c2)OCO3)c2ccc(-c3ccncc3)nc21
CC50 at 48 h [3]: > 200 µM

EC50 [4]: 39 µM
Compound: O=C(O)/C(O)=C/C(=O)c1ccc(OCc2ccccc2COc2cccc(C(=O)/C=C(\O)C(=O)O)c2)cc1

Compound: COc1ccc(C(=O)CC(=O)C(=O)O)cc1CN=[N+]=[N-]
IC50 [1]: > 25 µM

Compound: CC(C)N1CCn2cc(C(=O)NCc3ccc(F)cc3F)c(=O)c(O)c2C1=O
IC50 [12]: 5 µM | IC50 [13]: 1.7 µM | IC50 [14]: 3 µM

inhibition [15]: 39.9%
Compound: COc1ccc2[nH]c(=O)c(CNC3CCCC3)cc2c1

half-life [16]: 6.2 h
Compound: C[C@@H]1CCO[C@H]2Cn3cc(C(=O)NCc4ccc(F)cc4F)c(=O)c(O)c3C(=O)N12 [DOLUTEGRAVIR]

IC50 [2]: 3.11 µM
Compound: O=C(O)c1cc2ccc(Nc3ccc(F)cc3)cc2[nH]1

IC50 [17]: 0.36 µM
Compound: O=C(NCc1ccccc1)C1C(=O)N(O)C(=O)c2ccccc21 (centres undefined)

IC50 [6]: 0.4 µM
Compound: O=c1cc(-c2ccc(O)c(O)c2)oc2cc(O[C@@H]3O[C@H](CO)[C@@H](O)[C@H](O)[C@H]3OS(=O)(=O)O)cc(O)c12

IC50 [6]: 0.1 µM
Compound: CC(C)Oc1ccc(Cc2ccccc2)cc1C(=O)CC(=O)C(=O)O

IC50 [9]: 2.4 µM
Compound: O=C(NCc1c(F)cc(F)cc1F)c1cn2c(c(O)c1=O)C(=O)N1[C@H]3CC[C@H](C3)O[C@@H]1C2 [BICTEGRAVIR]

Compound: CC(C)Cn1ccn2cc(C(=O)NCc3ccc(F)cc3F)c(=O)c(O)c2c1=O
IC50 [12]: 3.6 µM | EC50 [18]: 0.06 µM | IC50 [13]: 3 µM | IC50 [14]: 4.7 µM

EC50 [11]: 0.2 µM
Compound: O=C(CCC(=O)/C(O)=C/C(=O)c1cccc(Cc2ccccc2F)c1)/C(O)=C/C(=O)c1cccc(Cc2ccccc2F)c1

Compound: CC(C)n1ccn2cc(C(=O)NCc3ccc(F)cc3F)c(=O)c(O)c2c1=O
IC50 [12]: 4.3 µM | EC50 [18]: 0.05 µM | IC50 [13]: 3.8 µM | IC50 [14]: 4.8 µM

IC50 [6]: 1 µM
Compound: O=C(NCc1ccc(O)c(O)c1)c1ccc2ccc(C(=O)O)c(O)c2n1

Compound: [N-]=[N+]=NCc1ccc(C(=O)CC(=O)C(=O)O)cc1CN=[N+]=[N-]
IC50 [1]: 14.3 µM

IC50 [17]: 0.06 µM
Compound: COC(=O)C1C(=O)N(O)C(=O)c2ccccc21 (centres undefined)

IC50 [6]: 0.17 µM
Compound: CC1COC2(C1)Cn1cc(C(=O)NCc3ccc(F)cc3F)c(=O)c(O)c1C(=O)C2(C)C (centres undefined)
